According to patent US10894793B2, “Bicyclic pyridine, pyrazine, and pyrimidine derivatives as PI3K beta inhibitors” (Janssen Pharmaceutica NV, priority 2016, dated 2021):
Read-outs that look alike come from different tables or passages of the source.

Columns and labels:
MTOR_h = target: T1, MTOR_h (Homo sapiens, UniProt P42345); experiment: Enzyme binding assay (KINOMEscan); conditions: DiscoveRx
T1 construct: purchased DiscoveRx Corporation
Description: (§1) Enzyme Binding Assays (KINOMEscan®)
(§2) Kinase enzyme binding affinities of compounds disclosed herein were determined using the KINOMEscan technology performed by DiscoveRx Corporation, San Diego, Calif., USA (www.kinomescan.com). Table A reports the obtained Kd values (nM), with the Kd being the inhibitor binding constant: […]

PIK3Cα_h = target: T2, PIK3Cα_h (Homo sapiens, UniProt P42336); experiment: Enzyme binding assay (KINOMEscan); conditions: DiscoveRx
T2 construct: purchased DiscoveRx Corporation
T2 sequence (P42336 whole entry): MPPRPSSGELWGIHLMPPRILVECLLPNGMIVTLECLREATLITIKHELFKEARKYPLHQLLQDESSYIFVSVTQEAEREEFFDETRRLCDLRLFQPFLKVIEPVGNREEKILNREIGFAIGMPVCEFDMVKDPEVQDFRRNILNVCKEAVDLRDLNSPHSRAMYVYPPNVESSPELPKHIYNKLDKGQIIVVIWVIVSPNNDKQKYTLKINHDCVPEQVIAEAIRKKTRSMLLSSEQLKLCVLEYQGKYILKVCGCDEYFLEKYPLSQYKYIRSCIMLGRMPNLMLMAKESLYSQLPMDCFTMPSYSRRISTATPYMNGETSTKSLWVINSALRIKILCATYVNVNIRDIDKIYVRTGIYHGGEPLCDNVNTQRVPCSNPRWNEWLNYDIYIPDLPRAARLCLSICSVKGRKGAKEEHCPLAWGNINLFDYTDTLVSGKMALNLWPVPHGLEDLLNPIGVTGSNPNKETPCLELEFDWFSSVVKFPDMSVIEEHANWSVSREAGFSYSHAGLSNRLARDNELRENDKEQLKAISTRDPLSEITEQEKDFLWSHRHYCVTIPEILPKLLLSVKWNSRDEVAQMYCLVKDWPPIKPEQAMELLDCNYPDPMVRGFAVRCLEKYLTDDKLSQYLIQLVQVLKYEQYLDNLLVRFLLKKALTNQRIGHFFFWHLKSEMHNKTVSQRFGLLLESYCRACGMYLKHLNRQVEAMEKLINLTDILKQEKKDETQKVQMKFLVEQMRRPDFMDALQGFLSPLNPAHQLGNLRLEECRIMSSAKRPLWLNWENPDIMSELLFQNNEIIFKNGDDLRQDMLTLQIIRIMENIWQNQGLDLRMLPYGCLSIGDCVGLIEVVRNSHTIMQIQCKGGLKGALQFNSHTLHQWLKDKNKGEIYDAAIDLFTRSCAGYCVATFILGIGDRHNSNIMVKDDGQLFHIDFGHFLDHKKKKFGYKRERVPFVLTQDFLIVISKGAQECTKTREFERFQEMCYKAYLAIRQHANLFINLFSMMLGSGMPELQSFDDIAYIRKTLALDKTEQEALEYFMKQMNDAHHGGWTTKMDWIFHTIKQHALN
Description: as §1, §2

PIK3Cβ_h = target: T3, PIK3Cβ_h (Homo sapiens, UniProt P42338); experiment: Enzyme binding assay (KINOMEscan); conditions: DiscoveRx
T3 construct: purchased DiscoveRx Corporation
T3 sequence (P42338 whole entry): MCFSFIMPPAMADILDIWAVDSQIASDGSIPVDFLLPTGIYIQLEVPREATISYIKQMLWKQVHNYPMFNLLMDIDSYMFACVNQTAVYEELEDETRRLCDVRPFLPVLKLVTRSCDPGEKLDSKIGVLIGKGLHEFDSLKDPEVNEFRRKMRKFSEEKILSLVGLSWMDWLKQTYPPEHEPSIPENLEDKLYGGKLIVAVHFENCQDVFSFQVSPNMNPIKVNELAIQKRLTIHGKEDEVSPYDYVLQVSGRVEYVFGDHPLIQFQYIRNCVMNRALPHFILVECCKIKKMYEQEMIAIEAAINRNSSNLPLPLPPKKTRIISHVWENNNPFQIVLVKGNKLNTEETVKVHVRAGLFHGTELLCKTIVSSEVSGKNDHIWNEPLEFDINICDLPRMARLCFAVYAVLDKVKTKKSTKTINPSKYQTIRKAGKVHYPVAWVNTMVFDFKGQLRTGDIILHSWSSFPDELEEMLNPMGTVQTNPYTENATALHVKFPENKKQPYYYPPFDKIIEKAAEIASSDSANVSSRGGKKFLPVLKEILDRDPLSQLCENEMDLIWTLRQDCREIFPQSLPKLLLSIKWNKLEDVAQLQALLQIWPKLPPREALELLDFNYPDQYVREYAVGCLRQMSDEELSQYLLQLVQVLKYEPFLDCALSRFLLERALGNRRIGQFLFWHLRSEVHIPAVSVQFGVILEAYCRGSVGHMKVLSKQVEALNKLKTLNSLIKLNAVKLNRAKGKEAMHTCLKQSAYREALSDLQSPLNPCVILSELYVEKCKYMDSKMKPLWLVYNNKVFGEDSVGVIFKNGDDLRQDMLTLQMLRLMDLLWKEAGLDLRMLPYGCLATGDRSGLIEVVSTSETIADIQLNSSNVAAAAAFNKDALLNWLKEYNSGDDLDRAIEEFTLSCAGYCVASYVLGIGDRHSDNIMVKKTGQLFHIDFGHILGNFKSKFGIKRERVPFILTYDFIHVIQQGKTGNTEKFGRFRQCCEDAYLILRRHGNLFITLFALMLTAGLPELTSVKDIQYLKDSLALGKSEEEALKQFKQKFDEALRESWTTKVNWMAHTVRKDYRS
Description: as §1, §2

PIK3Cγ_h = target: T4, PIK3Cγ_h (Homo sapiens, UniProt P48736); experiment: Enzyme binding assay (KINOMEscan); conditions: DiscoveRx
T4 construct: purchased DiscoveRx Corporation
T4 sequence (P48736 whole entry): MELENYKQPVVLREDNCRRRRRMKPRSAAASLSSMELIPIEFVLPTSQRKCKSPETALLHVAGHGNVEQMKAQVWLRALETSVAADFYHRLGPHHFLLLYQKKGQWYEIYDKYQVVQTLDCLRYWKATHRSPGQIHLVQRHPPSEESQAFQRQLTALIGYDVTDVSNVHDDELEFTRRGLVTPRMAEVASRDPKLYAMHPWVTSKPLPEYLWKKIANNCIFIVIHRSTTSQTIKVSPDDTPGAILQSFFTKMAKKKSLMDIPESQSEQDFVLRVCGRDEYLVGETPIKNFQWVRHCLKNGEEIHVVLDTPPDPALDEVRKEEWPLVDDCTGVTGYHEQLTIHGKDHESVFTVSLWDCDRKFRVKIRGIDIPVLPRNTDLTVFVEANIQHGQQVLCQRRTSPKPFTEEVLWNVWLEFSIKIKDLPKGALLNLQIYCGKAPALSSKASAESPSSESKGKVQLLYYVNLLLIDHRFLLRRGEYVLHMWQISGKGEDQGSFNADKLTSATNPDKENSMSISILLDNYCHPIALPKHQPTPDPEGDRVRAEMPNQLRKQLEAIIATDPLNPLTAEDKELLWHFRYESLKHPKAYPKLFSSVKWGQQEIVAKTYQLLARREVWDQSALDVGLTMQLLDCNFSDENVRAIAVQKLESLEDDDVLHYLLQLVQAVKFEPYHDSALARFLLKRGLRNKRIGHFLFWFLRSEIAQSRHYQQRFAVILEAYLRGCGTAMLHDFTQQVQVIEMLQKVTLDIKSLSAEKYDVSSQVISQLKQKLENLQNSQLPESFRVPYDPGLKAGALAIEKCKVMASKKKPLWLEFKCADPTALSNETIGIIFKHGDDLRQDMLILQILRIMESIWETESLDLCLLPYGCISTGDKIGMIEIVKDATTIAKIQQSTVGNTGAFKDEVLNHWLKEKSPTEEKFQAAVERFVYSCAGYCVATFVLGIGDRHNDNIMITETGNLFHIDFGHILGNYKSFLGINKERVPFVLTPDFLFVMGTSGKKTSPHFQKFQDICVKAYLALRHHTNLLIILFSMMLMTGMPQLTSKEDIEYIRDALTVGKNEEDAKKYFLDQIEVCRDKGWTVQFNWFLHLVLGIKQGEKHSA
Description: as §1, §2

PIK3Cδ_h = target: T5, PIK3Cδ_h (Homo sapiens, UniProt O00329); experiment: Enzyme binding assay (KINOMEscan); conditions: DiscoveRx
T5 construct: purchased DiscoveRx Corporation
T5 sequence (O00329 1-1044): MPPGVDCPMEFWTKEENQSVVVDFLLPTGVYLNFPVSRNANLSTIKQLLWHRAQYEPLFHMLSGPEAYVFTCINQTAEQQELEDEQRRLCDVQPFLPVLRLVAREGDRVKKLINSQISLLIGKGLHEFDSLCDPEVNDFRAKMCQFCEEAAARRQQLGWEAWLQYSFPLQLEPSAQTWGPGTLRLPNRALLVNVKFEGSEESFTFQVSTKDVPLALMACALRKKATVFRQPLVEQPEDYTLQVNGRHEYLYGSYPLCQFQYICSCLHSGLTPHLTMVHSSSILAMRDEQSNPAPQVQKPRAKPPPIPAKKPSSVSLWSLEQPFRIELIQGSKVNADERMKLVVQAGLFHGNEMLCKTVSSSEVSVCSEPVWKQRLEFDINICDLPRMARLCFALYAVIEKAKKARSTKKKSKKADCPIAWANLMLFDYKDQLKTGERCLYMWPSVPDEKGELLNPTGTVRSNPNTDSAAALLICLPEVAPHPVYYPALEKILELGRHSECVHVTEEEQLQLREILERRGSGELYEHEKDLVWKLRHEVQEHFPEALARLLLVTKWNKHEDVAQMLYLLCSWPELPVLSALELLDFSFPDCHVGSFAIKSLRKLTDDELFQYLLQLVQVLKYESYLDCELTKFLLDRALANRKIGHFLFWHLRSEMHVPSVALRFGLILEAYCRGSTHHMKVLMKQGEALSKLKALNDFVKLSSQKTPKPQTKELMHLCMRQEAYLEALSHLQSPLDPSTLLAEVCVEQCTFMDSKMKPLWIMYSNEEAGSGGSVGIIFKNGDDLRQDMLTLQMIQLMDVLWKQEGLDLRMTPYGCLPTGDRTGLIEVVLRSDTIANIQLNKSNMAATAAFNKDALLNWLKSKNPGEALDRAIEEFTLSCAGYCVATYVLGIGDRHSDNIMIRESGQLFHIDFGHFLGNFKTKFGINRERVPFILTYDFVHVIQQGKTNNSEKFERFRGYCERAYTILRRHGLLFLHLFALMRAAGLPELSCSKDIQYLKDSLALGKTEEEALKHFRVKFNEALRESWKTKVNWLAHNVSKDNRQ
Description: as §1, §2

[1] = test system: Akt phosphorylated at Ser473 in PC-3 cells; experiment: Cellular assay: phosphorylation of Akt (Ser473) in PC-3 cells, MSD ELISA; format: cell-based; conditions: 60 min compound incubation, read-out: IC50 pAkt_S473
Description: (§3) Cellular activity of PI3Kβ inhibitors was determined by quantifying the phosphorylation of Akt in PC-3 cells. Akt phosphorylated at Ser473 and Thr308 were measured using an enzyme-linked immunosorbent assay (ELISA; Meso Scale Discovery (MSD), Gaithersburg, Md.) and specific primary antibodies from MSD.
(§4) On day 1, PC3 cells (ATCC #[…]) were seeded into PerkinElmer MW96 plates at 25.000 cells per well, in 75 μl complete culture medium (DMEM high glucose, AQmedia™, D0819, Sigma-Aldrich) containing 10% heat inactivated FCS and incubated at 37° C., […] during 24 hours. On day 2, compound or DMSO (0.3%) was added and cells were further incubated for 60 min at 37° C., 5% CO2 in a total volume of 100 μl of medium.
(§5) The phosphoprotein assay was executed according to vendor instructions in the Phospho-Akt (Ser473) Assay Whole Cell Lysate Kit (MSD #K15100D-3) and the Phospho-Akt (Thr308) Assay Whole Cell Lysate Kit (MSD #K151DYD-3) using the lysis, blocking and wash buffer provided.
(§6) Briefly, at the end of the cell treatment period, media were removed by aspiration and adherent cells were lysed in 50 μl ice-cold lysis buffer. MSD plates are supplied pre-coated with capture antibodies for Phospho-Akt (Ser473 and Thr308). After blocking, lysates from tissue culture plates were added and plates were washed. Then, a solution containing the detection antibody (anti-total Akt conjugated with an electrochemiluminescent compound-MSD Sulfo-tag label) was added. The signals were detected using an MSD SECTOR Imager 6000 and are proportional to the phospho-Akt titres.
(§7) Data were processed. The percentage of inhibition was plotted against the log concentration of test compounds, and the sigmoidal log concentration-effect curve of best fit was calculated by nonlinear regression analysis. From these concentration-response curves, the IC50 values were calculated. Five concentrations were used for curve fitting.

[2] = test system: Akt phosphorylated at Thr308 in PC-3 cells; experiment: Cellular assay: phosphorylation of Akt (Thr308) in PC-3 cells, MSD ELISA; format: cell-based; conditions: 60 min compound incubation, read-out: IC50 pAkt_Thr308
Description: as §3, §4, §5, §6, §7

Structure (SMILES) | Kd (MTOR_h) | Kd (PIK3Cα_h) | Kd (PIK3Cβ_h) | Kd (PIK3Cγ_h) | Kd (PIK3Cδ_h) | IC50 [1] | IC50 [2] | IC50 ([2]; Homo sapiens, PC-3, 1 h) | IC50 ([1]; Homo sapiens, PC-3, 1 h)
Cc1c(Cc2c(CNCCO)nc3cnc(N4CCOCC4)cn23)cccc1C(F)(F)F [Compound 12] | > 30200 nM | > 30200 nM | 68 nM | > 30200 nM | 5490 nM | – | – | > 513 nM | > 513 nM
Cc1c(Cc2c(CC(=O)N3C[C@@H](C)N[C@@H](C)C3)nc3cnc(N4CCOCC4)cn23)cccc1C(F)(F)F [Compound 14] | > 30200 nM | > 30200 nM | 155 nM | > 30200 nM | 15100 nM | – | – | > 513 nM | > 513 nM
Cc1c(Cc2c(CC(=O)N3CC(CO)C3)nc3cnc(N4CCOCC4)cn23)cccc1C(F)(F)F [Compound 15] | > 30200 nM | > 30200 nM | 141 nM | > 30200 nM | 11200 nM | – | – | – | –
Cc1c(Cc2c(CN3CCCC4(CNC4)C3)nc3ncc(N4CCOCC4)cn23)cccc1C(F)(F)F [Compound 20] | > 30200 nM | > 30200 nM | 76 nM | > 30200 nM | 7240 nM | – | – | > 513 nM | > 513 nM
Cc1c(Cc2c(CN3CCC4(CCS(=O)(=O)C4)C3)nc3ncc(N4CCOCC4)cn23)cccc1C(F)(F)F (stereo not shown) [Compound 24] | > 30200 nM | 2570 nM | 11 nM | > 30200 nM | 1410 nM | – | – | ~174 nM | 288 nM
Cc1c(Cc2c(CN3CCC4(CCCS4(=O)=O)C3)nc3ncc(N4CCOCC4)cn23)cccc1C(F)(F)F (stereo not shown) [Compound 26] | > 30200 nM | 4170 nM | 6.8 nM | > 30200 nM | 697 nM | – | – | 71 nM | 479 nM
Cc1nc2ccc(N3CCOCC3)cn2c1Cc1cccc(C(F)(F)F)c1C [Compound 27] | > 30200 nM | 9550 nM | 363 nM | > 30200 nM | 2570 nM | – | – | 417 nM | > 513 nM
Cc1c(Cc2c(CF)nc3ccc(N4CCOCC4)cn23)cccc1C(F)(F)F [Compound 29] | > 30200 nM | 6920 nM | 126 nM | 14500 nM | 2140 nM | – | – | 50 nM | 155 nM

Results, then the compound that gave them:

Kd (MTOR_h) | Kd (PIK3Cα_h) | Kd (PIK3Cβ_h) | Kd (PIK3Cγ_h) | Kd (PIK3Cδ_h) | IC50 [1] | IC50 [2] | IC50 ([2]; Homo sapiens, PC-3, 1 h) | IC50 ([1]; Homo sapiens, PC-3, 1 h) | Structure (SMILES)
> 30200 nM | > 30200 nM | 6.5 nM | > 30200 nM | 759 nM | 347 nM | 170 nM | – | – | Cc1c(Cc2c(CN3CCC4(CCS(=O)(=O)C4)C3)nc3ncc(N4CCOCC4)cn23)cccc1C(F)(F)F (single isomer, unassigned) [Compound 24a]
> 30200 nM | 11500 nM | 1.4 nM | > 30200 nM | 468 nM | – | – | > 513 nM | – | Cc1nc2c(C(=O)O)nc(C3=CCOCC3)cn2c1Cc1cccc(C(F)(F)F)c1C [Compound 3]
> 30200 nM | 12000 nM | 7.6 nM | 14800 nM | 3020 nM | – | – | 479 nM | > 513 nM | Cc1nc2c(CO)nc(C3=CCOCC3)cn2c1Cc1cccc(C(F)(F)F)c1C [Compound 4]
> 30200 nM | > 30200 nM | 120 nM | > 30200 nM | 8130 nM | – | – | > 513 nM | > 513 nM | Cc1c(Cc2c(CN3C[C@@H](C)N[C@@H](C)C3)nc3cnc(N4CCOCC4)cn23)cccc1C(F)(F)F [Compound 11]
17900 nM | 3500 nM | 1.4 nM | 15300 nM | 442 nM | – | – | 43 nM | 72 nM | Cc1c(Cc2c(CO)nc3ncc(N4CCOCC4)cn23)cccc1C(F)(F)F [Compound 18]
5620 nM | 5890 nM | 8.9 nM | 7240 nM | 759 nM | – | – | 120 nM | 195 nM | Cc1c(F)cccc1Cc1c(CO)nc2ncc(N3CCOCC3)cn12 [Compound 25]
> 10000 nM | > 10000 nM | 631 nM | > 30200 nM | 5750 nM | – | – | – | – | CCOC(=O)Cc1nc2ccc(N3CCOCC3)cn2c1Cc1cccc(C(F)(F)F)c1C [Compound 30]
